# Data: patent US11530222B2, “Substituted pyrrolopyrimidine and pyrazolopyrimidine as Bruton's tyrosine kinase (BTK) degraders” (ACCUTAR BIOTECHNOLOGY INC., priority 2021, dated 2022)
# Molecular target: T1, BTK (Homo sapiens, UniProt Q06187)
# T1 construct: BTK Degradative Activity of Exemplary Compounds of the Present Disclosure in a RAMOS Cell Line; host or cells: RAMOS
# Test: BTK degradative activity in a RAMOS cell line (Western blot)
# Type: cell-based
# Conditions: 6 hours after administration, read-out: RAMOS BTK Degradation DC50
# Procedure: RAMOS (ATCC) cells were plated in 24-well plates at 8×10^5 cells/well in the RPMI growth medium containing 10% heat-inactivated FBS and 1× Penicillin Streptomycin, and then incubated at 37° C. overnight. The following day, the test compound was administered to the cells by using 1000× compound stock solution prepared in DMSO at various concentrations. After administration of the compound, the cells were then incubated at 37° C. for 6 hours.
# Upon completion, the cells were collected by centrifugation and lysed in Laemmli sample buffer (1×; VWR International). Proteins in cell lysate were separated by SDS-PAGE and transferred to Odyssey nitrocellulose membranes (Licor) with Iblot® dry blotting transfer system (ThermoFisher). Nonspecific binding was blocked by incubating membranes with Intercept Blocking Buffer (Licor) for 1 hour at room temperature with gentle shaking. The membranes were then incubated overnight at 4° C. with primary antibodies anti-BTK (Cell signaling, cat. #8547) and anti-GAPDH (Cell signaling, cat. #5179) diluted in Intercept Blocking Buffer containing 0.1% Tween 20. After washing 3 times with TBS-T, the membranes were incubated with IRDye® 800CW goat anti-mouse IgG (1:20,000, Licor) or IRDye® 800CW goat anti-rabbit IgG (1:20,000, Licor) for 1 hour. After TBS-T washes, membranes were rinsed in TBS and scanned on Odyssey® CLx Imaging System (Licor). The bands were quantified using Image Studio™ Software (Licor).
# Table 3 summarizes the BTK degradative activity of exemplary compounds of the present disclosure in a RAMOS cell line 6 hours after administration. The DC50 values (i.e., the concentration of test compound at which 50% of the target protein is degraded) were calculated. A designation of “A” corresponds to a DC50 value less than 10 nM. A designation of “B” corresponds to a DC50 value greater than or equal to 10 nM and less than 100 nM. A designation of “C” corresponds to a DC50 value greater than or equal to 100 nM.
# T1 sequence (Q06187 whole entry): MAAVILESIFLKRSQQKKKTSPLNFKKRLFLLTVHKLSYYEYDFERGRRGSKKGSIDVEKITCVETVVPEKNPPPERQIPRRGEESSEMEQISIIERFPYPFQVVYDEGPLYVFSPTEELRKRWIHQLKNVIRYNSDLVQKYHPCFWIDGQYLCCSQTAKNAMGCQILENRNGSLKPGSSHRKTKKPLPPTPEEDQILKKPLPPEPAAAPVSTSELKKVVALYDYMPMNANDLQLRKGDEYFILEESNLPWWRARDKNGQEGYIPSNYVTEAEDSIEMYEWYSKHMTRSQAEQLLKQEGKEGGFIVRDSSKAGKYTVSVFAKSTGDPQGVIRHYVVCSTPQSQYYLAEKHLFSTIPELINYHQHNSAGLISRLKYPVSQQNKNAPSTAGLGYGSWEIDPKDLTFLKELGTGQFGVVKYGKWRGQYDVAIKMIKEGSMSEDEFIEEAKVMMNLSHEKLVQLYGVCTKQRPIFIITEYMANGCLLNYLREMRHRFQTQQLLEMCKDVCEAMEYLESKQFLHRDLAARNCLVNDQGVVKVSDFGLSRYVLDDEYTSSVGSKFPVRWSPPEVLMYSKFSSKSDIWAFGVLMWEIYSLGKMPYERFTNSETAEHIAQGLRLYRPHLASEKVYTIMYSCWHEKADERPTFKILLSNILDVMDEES
row,DC50 [nM],Compound
1,≥ 100,"O=C1CCC(N2C(=O)c3ccc(OCCCCCCCN4CCN(c5ccc(C(=O)N6CCC[C@@H](Nc7ncnc8[nH]cc(C(=O)c9ccc(Oc%10ccccc%10)cc9Cl)c78)C6)cn5)CC4)cc3C2=O)C(=O)N1 (stereo partly drawn) [Compound 1, 5-((7-(4-(5-((R)-3-((5-(2-chloro-4-phenoxybenzoyl)-7H-pyrrolo [2,3-d]pyrimidin-4-yl)amino)piperidine-1-carbonyl)pyridin-2-yl)piperazin-1-yl)heptyl)oxy)-2-(2,6-dioxopiperidin-3-yl)isoindoline-1,3-dione]"
2,≥ 100,"O=C1CCC(N2C(=O)c3ccc(N4CCN(c5ccc(C(=O)N6CCC[C@@H](Nc7ncnc8[nH]cc(C(=O)c9ccc(Oc%10ccccc%10)cc9Cl)c78)C6)cn5)CC4)cc3C2=O)C(=O)N1 (stereo partly drawn) [Compound 2, 5-(4-(5-((R)-3-((5-(2-chloro-4-phenoxybenzoyl)-7H-pyrrolo[2,3-d]pyrimidin-4-yl)amino)piperidine-1-carbonyl)pyridin-2-yl)piperazin-1-yl)-2-(2,6-dioxopiperidin-3-yl)isoindoline-1,3-dione]"
3,≥ 100,"O=C1CCC(N2C(=O)c3ccc(OCCCCCCN4CCN(c5ccc(C(=O)N6CCC[C@@H](Nc7ncnc8[nH]cc(C(=O)c9ccc(Oc%10ccccc%10)cc9Cl)c78)C6)cn5)CC4)cc3C2=O)C(=O)N1 (stereo partly drawn) [Compound 3, 5-((6-(4-(5-((R)-3-((5-(2-chloro-4-phenoxybenzoyl)-7H-pyrrolo [2,3-d]pyrimidin-4-yl)amino)piperidine-1-carbonyl)pyridin-2-yl)piperazin-1-yl)hexyl)oxy)-2-(2,6-dioxopiperidin-3-yl)isoindoline-1,3-dione]"
4,≥ 100,"O=C1CCC(N2C(=O)c3ccc(OCCCN4CCN(c5ccc(C(=O)N6CCC[C@@H](Nc7ncnc8[nH]cc(C(=O)c9ccc(Oc%10ccccc%10)cc9Cl)c78)C6)cn5)CC4)cc3C2=O)C(=O)N1 (stereo partly drawn) [Compound 4, 5-(3-(4-(5-((R)-3-((5-(2-chloro-4-phenoxybenzoyl)-7H-pyrrolo [2,3-d]pyrimidin-4-yl)amino)piperidine-1-carbonyl)pyridin-2-yl)piperazin-1-yl)propoxy)-2-(2,6-dioxopiperidin-3-yl)isoindoline-1,3-dione]"
5,≥ 100,"O=C1CCC(N2C(=O)c3ccc(OCCN4CCN(c5ccc(C(=O)N6CCC[C@@H](Nc7ncnc8[nH]cc(C(=O)c9ccc(Oc%10ccccc%10)cc9Cl)c78)C6)cn5)CC4)cc3C2=O)C(=O)N1 (stereo partly drawn) [Compound 5, 5-(2-(4-(5-((R)-3-((5-(2-chloro-4-phenoxybenzoyl)-7H-pyrrolo[2,3-d]pyrimidin-4-yl)amino)piperidine-1-carbonyl)pyridin-2-yl)piperazin-1-yl)ethoxy)-2-(2,6-dioxopiperidin-3-yl)isoindoline-1,3-dione]"
6,≥ 100,"O=C1CCC(N2C(=O)c3ccc(OCCCCCN4CCN(c5ccc(C(=O)N6CCC[C@@H](Nc7ncnc8[nH]cc(C(=O)c9ccc(Oc%10ccccc%10)cc9Cl)c78)C6)cn5)CC4)cc3C2=O)C(=O)N1 (stereo partly drawn) [Compound 6, 5-((5-(4-(5-((R)-3-((5-(2-chloro-4-phenoxybenzoyl)-7H-pyrrolo [2,3-d]pyrimidin-4-yl)amino)piperidine-1-carbonyl)pyridin-2-yl)piperazin-1-yl)pentyl)oxy)-2-(2,6-dioxopiperidin-3-yl)isoindoline-1,3-dione]"
7,10 to 100,"O=C1CCC(N2C(=O)c3ccc(N4CCN(CCCCCC(=O)N5CCC[C@@H](Nc6ncnc7[nH]cc(C(=O)c8ccc(Oc9ccccc9)cc8Cl)c67)C5)CC4)cc3C2=O)C(=O)N1 (stereo partly drawn) [Compound 7, 5-(4-(6-((R)-3-((5-(2-chloro-4-phenoxybenzoyl)-7H-pyrrolo[2,3-d]pyrimidin-4-yl)amino)piperidin-1-yl)-6-oxohexyl)piperazin-1-yl)-2-(2,6-dioxopiperidin-3-yl)isoindoline-1,3-dione]"
8,10 to 100,O=C1CCC(N2C(=O)c3ccc(N4CCN(CCCCCCC(=O)N5CCC[C@@H](Nc6ncnc7[nH]cc(C(=O)c8ccc(Oc9ccccc9)cc8Cl)c67)C5)CC4)cc3C2=O)C(=O)N1 (stereo partly drawn) [Compound 8]
9,10 to 100,"O=C1CCC(N2C(=O)c3ccc(N4CCN(Cc5ccc(C(=O)N6CCC[C@@H](Nc7ncnc8[nH]cc(C(=O)c9ccc(Oc%10ccccc%10)cc9Cl)c78)C6)cn5)CC4)cc3C2=O)C(=O)N1 (stereo partly drawn) [Compound 9, 5-(4-((5-((R)-3-((5-(2-chloro-4-phenoxybenzoyl)-7H-pyrrolo[2,3-d]pyrimidin-4-yl)amino)piperidine-1-carbonyl)pyridin-2-yl)methyl)piperazin-1-yl)-2-(2,6-dioxopiperidin-3-yl)isoindoline-1,3-dione]"
10,≥ 100,"O=C1CCC(N2C(=O)c3ccc(N4CCN(CC5CCN(c6ccc(C(=O)N7CCC[C@@H](Nc8ncnc9[nH]cc(C(=O)c%10ccc(Oc%11ccccc%11)cc%10Cl)c89)C7)cn6)CC5)CC4)cc3C2=O)C(=O)N1 (stereo partly drawn) [Compound 10, 5-(4-((1-(5-((R)-3-((5-(2-chloro-4-phenoxybenzoyl)-7H-pyrrolo[2,3-d]pyrimidin-4-yl)amino)piperidine-1-carbonyl)pyridin-2-yl)piperidin-4-yl)methyl)piperazin-1-yl)-2-(2,6-dioxopiperidin-3-yl)isoindoline-1,3-dione]"
11,10 to 100,"O=C1CCC(N2C(=O)c3ccc(N4CCN(CCCCC(=O)N5CCC[C@@H](Nc6ncnc7[nH]cc(C(=O)c8ccc(Oc9ccccc9)cc8Cl)c67)C5)CC4)cc3C2=O)C(=O)N1 (stereo partly drawn) [Compound 11, 5-(4-(5-((R)-3-((5-(2-chloro-4-phenoxybenzoyl)-7H-pyrrolo[2,3-d]pyrimidin-4-yl)amino)piperidin-1-yl)-5-oxopentyl)piperazin-1-yl)-2-(2,6-dioxopiperidin-3-yl)isoindoline-1,3-dione]"
12,10 to 100,"O=C1CCC(N2C(=O)c3ccc(N4CCN(CCCCCCCN5CCC(Nc6ncnc7[nH]cc(C(=O)c8ccc(Oc9ccccc9)cc8Cl)c67)CC5)CC4)cc3C2=O)C(=O)N1 (stereo not drawn) [Compound 12, 5-(4-(7-(4-((5-(2-chloro-4-phenoxybenzoyl)-7H-pyrrolo[2,3-d]pyrimidin-4-yl)amino)piperidin-1-yl)heptyl)piperazin-1-yl)-2-(2,6-dioxopiperidin-3-yl)isoindoline-1,3-dione]"
13,< 10,"O=C1CC[C@H](N2Cc3cc(N4CCN(CCCCCC(=O)N5CCC(Nc6ncnc7[nH]cc(C(=O)c8ccc(Oc9ccccc9)cc8Cl)c67)CC5)CC4)ccc3C2=O)C(=O)N1 [Compound 13, (S)-3-(5-(4-(6-(4-((5-(2-chloro-4-phenoxybenzoyl)-7H-pyrrolo[2,3-d]pyrimidin-4-yl)amino)piperidin-1-yl)-6-oxohexyl)piperazin-1-yl)-1-oxoisoindolin-2-yl)piperidine-2,6-dione]"
14,10 to 100,"O=C1CC[C@H](N2Cc3cc(N4CCN(CCCCC(=O)N5CCC[C@@H](Nc6ncnc7[nH]cc(C(=O)c8ccc(Oc9ccccc9)cc8Cl)c67)C5)CC4)ccc3C2=O)C(=O)N1 [Compound 14, (S)-3-(5-(4-(5-((R)-3-((5-(2-chloro-4-phenoxybenzoyl)-7H-pyrrolo[2,3-d]pyrimidin-4-yl)amino)piperidin-1-yl)-5-oxopentyl)piperazin-1-yl)-1-oxoisoindolin-2-yl)piperidine-2,6-dione]"
15,≥ 100,"O=C1CCC(N2C(=O)c3ccc(N4CCN(CCCCCCN5CCC[C@@H](Nc6ncnc7[nH]cc(C(=O)c8ccc(Oc9ccccc9)cc8Cl)c67)C5)CC4)cc3C2=O)C(=O)N1 (stereo partly drawn) [Compound 15, 5-(4-(6-((R)-3-((5-(2-chloro-4-phenoxybenzoyl)-7H-pyrrolo[2,3-d]pyrimidin-4-yl)amino)piperidin-1-yl)hexyl)piperazin-1-yl)-2-(2,6-dioxopiperidin-3-yl)isoindoline-1,3-dione]"
16,10 to 100,"O=C1CC[C@H](N2Cc3cc(N4CCN(CCCCCC(=O)N5CCC[C@@H](Nc6ncnc7[nH]cc(C(=O)c8ccc(Oc9ccccc9)cc8Cl)c67)C5)CC4)ccc3C2=O)C(=O)N1 [Compound 16, (S)-3-(5-(4-(6-((R)-3-((5-(2-chloro-4-phenoxybenzoyl)-7H-pyrrolo[2,3-d]pyrimidin-4-yl)amino)piperidin-1-yl)-6-oxohexyl)piperazin-1-yl)-1-oxoisoindolin-2-yl)piperidine-2,6-dione]"
17,10 to 100,"O=C1CCC(N2Cc3cc(N4CCN(CCCCCCC(=O)N5CCC[C@@H](Nc6ncnc7[nH]cc(C(=O)c8ccc(Oc9ccccc9)cc8Cl)c67)C5)CC4)ccc3C2=O)C(=O)N1 (stereo partly drawn) [Compound 17, 3-(5-(4-(7-((R)-3-((5-(2-chloro-4-phenoxybenzoyl)-7H-pyrrolo[2,3-d]pyrimidin-4-yl)amino)piperidin-1-yl)-7-oxoheptyl)piperazin-1-yl)-1-oxoisoindolin-2-yl)piperidine-2,6-dione]"
18,≥ 100,"O=C1CCC(N2C(=O)c3ccc(N4CCN(CCCCCCN5CCC(Nc6ncnc7[nH]cc(C(=O)c8ccc(Oc9ccccc9)cc8Cl)c67)CC5)CC4)cc3C2=O)C(=O)N1 (stereo not drawn) [Compound 18, 5-(4-(6-(4-((5-(2-chloro-4-phenoxybenzoyl)-7H-pyrrolo[2,3-d]pyrimidin-4-yl)amino)piperidin-1-yl)hexyl)piperazin-1-yl)-2-(2,6-dioxopiperidin-3-yl)isoindoline-1,3-dione]"
